Results published in ChEMBL document CHEMBL3046958, “Synthesis and Evaluation of Homologous Analogs of Anticonvulsant 5-Substituted 3,3-Diethyl-4,5-Dighdro-2(3H)-Furanones” (Med Chem Res, 2005).
Values belong to the compound of their own block, whether it stands above or below them. The source made the active and inactive calls. The rule behind the calls is not given here.

Key:
Mus musculus [1] = assay: Anticonvulsant activity in Mus musculus CF1 (mouse) assessed as protection against maximal electroshock-induced seizures at 100 to 300 mg/kg measured after 0.5 hr; type: functional
Mus musculus [2] = assay: Anticonvulsant activity in Mus musculus CF1 (mouse) assessed as protection against subcutaneous pentylenetetrazol-induced seizures at 100 to 300 mg/kg; type: functional, organism-based
Mus musculus [3] = assay: (§1) Neurotoxicity in Mus musculus CF1 (mouse) at 100 to 300 mg/kg by rotorod test; type: toxicity, organism-based; parameters: dose 100-300 mg/kg; conditions: mouse, in vivo
Mus musculus [4] = assay: Anticonvulsant activity in Mus musculus CF1 (mouse) assessed as protection against maximal electroshock-induced seizures at 100 to 300 mg/kg measured after 4 hr; type: functional
[5] = target: GABA-A receptor; agonist GABA site (Homo sapiens) (UniProt P14867+P47870+P28472+P48169+P34903+P18505+P47869+P31644+Q16445); assay: Displacement of [3H]TBOB from GABAA receptor (unknown origin) at 10 uM; type: protein-complex assay
Mus musculus [6] = assay: Anticonvulsant activity in Mus musculus CF1 (mouse) assessed as protection against maximal electroshock-induced seizures at 300 mg/kg; type: functional, organism-based; parameters: dose 300 mg/kg
Mus musculus [7] = assay: Neurotoxicity in Mus musculus CF1 (mouse) at 300 mg/kg by rotorod test; type: toxicity, organism-based; parameters: dose 300 mg/kg; conditions: in vivo
Mus musculus [8] = assay: Anticonvulsant activity in Mus musculus CF1 (mouse) assessed as protection against subcutaneous pentylenetetrazol-induced seizures; type: functional
[9] = as §1; type: toxicity, organism-based; parameters: dose 100-300 mg/kg; conditions: CF1, mouse, in vivo
Mus musculus [10] = assay: Anticonvulsant activity in Mus musculus CF1 (mouse) assessed as protection against subcutaneous pentylenetetrazol-induced seizures at 300 mg/kg; type: functional, organism-based; parameters: dose 300 mg/kg

Structure (SMILES): CCCCCCCC(=O)NCCC1CC(CC)(CC)C(=O)O1 (centres undefined)
Activity (Mus musculus [1]): inactive
Activity (Mus musculus [2]): inactive

Structure (SMILES): CCC1(CC)CC(COC(=O)c2ccc(C)cc2)OC1=O (centres undefined)
Activity (Mus musculus [1]): inactive
Activity (Mus musculus [3]): Non-toxic
Activity (Mus musculus [2]): inactive
Activity (Mus musculus [4]): inactive

inhibition [5]: 0.29%
Structure (SMILES): CCC1(CC)CC(CCNC(=O)c2ccccc2)OC1=O (centres undefined)
Activity (Mus musculus [1]): inactive
Activity (Mus musculus [2]): inactive
Activity (Mus musculus [6]): Active

Structure (SMILES): CCC1(CC)CC(CCNC(=O)c2ccc(OC)cc2)OC1=O (centres undefined)
Activity (Mus musculus [1]): inactive
Activity (Mus musculus [2]): inactive

Structure (SMILES): CCCCCCCC(=O)OCC1CC(CC)(CC)C(=O)O1 (centres undefined)
Activity (Mus musculus [1]): inactive
Activity (Mus musculus [3]): Non-toxic
Activity (Mus musculus [2]): inactive
Activity (Mus musculus [4]): inactive

Structure (SMILES): CCC1(CC)CC(CCOC(=O)c2ccc(OC)cc2)OC1=O (centres undefined)
Activity (Mus musculus [1]): inactive
Activity (Mus musculus [2]): inactive

inhibition [5]: 3.62%
Structure (SMILES): CCC(=O)NCCC1CC(CC)(CC)C(=O)O1 (centres undefined)
Activity (Mus musculus [1]): inactive
Activity (Mus musculus [2]): inactive

inhibition [5]: 12.5%
Structure (SMILES): CCC1(CC)CC(COC(=O)c2ccccc2)OC1=O (centres undefined)
Activity (Mus musculus [1]): inactive
Activity (Mus musculus [3]): Non-toxic
Activity (Mus musculus [2]): inactive
Activity (Mus musculus [4]): inactive

Structure (SMILES): CCC(=O)OCC1CC(CC)(CC)C(=O)O1 (centres undefined)
Activity (Mus musculus [1]): inactive
Activity (Mus musculus [3]): Non-toxic
Activity (Mus musculus [2]): inactive
Activity (Mus musculus [4]): inactive

inhibition [5]: 3.86%
Structure (SMILES): CCC1(CC)CC(CCOC(=O)c2ccccc2)OC1=O (centres undefined)
Activity (Mus musculus [1]): inactive
Activity (Mus musculus [2]): inactive

Structure (SMILES): CCC1(CC)CC(COC(=O)c2ccc(Br)cc2)OC1=O (centres undefined)
Activity (Mus musculus [1]): inactive
Activity (Mus musculus [3]): Non-toxic
Activity (Mus musculus [2]): inactive
Activity (Mus musculus [4]): inactive

Structure (SMILES): CCC(=O)OCCC1CC(CC)(CC)C(=O)O1 (centres undefined)
Activity (Mus musculus [1]): inactive
Activity (Mus musculus [2]): inactive

Structure (SMILES): CCC1(CC)CC(CCOC(=O)c2ccc(Br)cc2)OC1=O (centres undefined)
Activity (Mus musculus [1]): inactive
Activity (Mus musculus [7]): Toxic
Activity (Mus musculus [2]): inactive

Structure (SMILES): CCC1(CC)CC(COC(=O)c2ccc(OC)cc2)OC1=O (centres undefined)
Activity (Mus musculus [8]): 300 mg/kg
Activity (Mus musculus [1]): inactive
Activity (Mus musculus [3]): Non-toxic
Activity (Mus musculus [4]): inactive

Structure (SMILES): CCC1(CC)CC(CCNC(=O)c2ccc(Br)cc2)OC1=O (centres undefined)
Activity (Mus musculus [1]): inactive
Activity (Mus musculus [2]): inactive

Structure (SMILES): CCCCCCCC(=O)OCCC1CC(CC)(CC)C(=O)O1 (centres undefined)
Activity (Mus musculus [1]): inactive
Activity (Mus musculus [2]): inactive

Structure (SMILES): CCC1(CC)CC(CNC(=O)c2ccc(Br)cc2)OC1=O (centres undefined)
ED50 (Mus musculus [1]; CF1, 0.5 h, dose mg/kg 100-300): 89.9 mg/kg
TD50 [9]: 285 mg/kg
ED50 (Mus musculus [4]; CF1, 4 h, dose mg/kg 100-300): 89.9 mg/kg

Structure (SMILES): CCC1(CC)CC(CCNC(=O)c2ccc(C)cc2)OC1=O (centres undefined)
Activity (Mus musculus [1]): inactive
Activity (Mus musculus [2]): inactive

inhibition [5]: 9.1%
Structure (SMILES): CCC1(CC)CC(CO)OC1=O (centres undefined)

Structure (SMILES): CCC1(CC)CC(CCOC(=O)c2ccc(C)cc2)OC1=O (centres undefined)
Activity (Mus musculus [1]): inactive
Activity (Mus musculus [2]): inactive
Activity (Mus musculus [10]): Active
